Data from patent US11020400B2, “Tetrahydropyranyl amino-pyrrolopyrimidinone and methods of use thereof” (ArQule, Inc., priority 2015, dated 2021).

Experiments:
TMD-8 cells = test: Anti-Proliferation Assay (MTS), TMD-8 cells; assay type: cell-based; conditions: Homo sapiens, TMD8, treated for 72 hours, MTS cell survival
Method: (§1) Cell survival is determined by a MTS assay. Briefly, cells (i.e., TMD-8 cells or Rec-1 cells) are plated in a 96-well plate, cultured in complete growth medium, and then treated with various drugs and drug combinations. MTS/PMS is added and incubated, followed by assessment of cell viability using the microplate reader. Data is normalized to untreated controls and analyzed with Microsoft Excel.
(§2) Cell survival was determined by the MTS assay. Briefly, cells (i.e., TMD-8 cells or Rec-1 cells) were plated in a 96-well plate at 2,000-10,000 cells per well, cultured for 24 hours in complete growth medium, and then treated with various drugs and drug combinations for 72 hours. MTS/PMS was added and incubated for 4 hour, followed by assessment of cell viability using the microplate reader (absorbance at 490 nm). Data were normalized to untreated controls and analyzed with Microsoft Excel.

Rec-1 cells = test: Anti-Proliferation Assay (MTS), Rec-1 cells; assay type: cell-based; conditions: Homo sapiens, Rec1, treated for 72 hours, MTS cell survival
Method: as §1, §2

O=C(c1ccc(Oc2ccccc2)cc1Cl)c1c[nH]c2ncnc(N[C@@H]3CC[C@@H](CO)OC3)c12 [Compound (I), (2-chloro-4-phenoxyphenyl)(4-(((3R,6S)-6-(hydroxymethyl)tetrahydro-2H-pyran-3-yl)amino)-7H-pyrrolo[2,3-d]pyrimidin-5-yl)methanone]
IC50 (TMD-8 cells): 130 ± 60 nM
IC50 (Rec-1 cells): 180 ± 70 nM
